Assay results taken from patent publication US9096615B2, “Bridged bicyclic amino thiazine dioxide compounds as inhibitors of beta-secretase and methods of use thereof” (AMGEN INC., priority 2013, dated 2015).
pIC50: −log10 of the molar value.

Key:
BACE1 = BACE1 (Homo sapiens, UniProt P56817); assay: In vitro enzymatic BACE FRET assay; type: biochemical; conditions: average IC50; read-out: BACE1 Enzyme assay IC50
Method in brief: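 BACE (0.2 nM) pre-incubated 1 h with serially diluted inhibitor in 0.05 M acetate pH 4.2, 10% DMSO, 100 uM genapol; 50 nM FRET peptide substrate added, 1 h incubation. Stopped with Tris to neutral pH; fluorescence read (ex 488, […]).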

[1] = test system: Aβ40 in conditioned medium of cells stably expressing Amyloid Precursor Protein (APP); assay: In vitro BACE cell-based assay (HEK cell assay, Aβ40 sandwich ELISA); conditions: Homo sapiens, HEK293; average IC50; read-out: BACE1 cell assay IC50
Method in brief: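 APP-stable cells were cultured 24 h at 37 °C, then given compound as 10-point dose-response (top 100 μM or 10 μM; 0.1% DMSO final) for 24 h. Aβ40 in conditioned medium was measured by sandwich ELISA (pAb40 capture, biotinylated 6E10 detection, Eu time-resolved fluorescence). IC50 from percent inhibition versus concentration.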

human Bace2 protein = biological target: T1, human Bace2 protein (Homo sapiens, UniProt Q9Y5Z0); assay: In vitro enzymatic BACE2 FRET assay; type: biochemical; conditions: average IC50; read-out: BACE2 Enzyme assay IC50
T1 construct: V5 (C); 6-His (C)
T1 sequence (Q9Y5Z0 63-518): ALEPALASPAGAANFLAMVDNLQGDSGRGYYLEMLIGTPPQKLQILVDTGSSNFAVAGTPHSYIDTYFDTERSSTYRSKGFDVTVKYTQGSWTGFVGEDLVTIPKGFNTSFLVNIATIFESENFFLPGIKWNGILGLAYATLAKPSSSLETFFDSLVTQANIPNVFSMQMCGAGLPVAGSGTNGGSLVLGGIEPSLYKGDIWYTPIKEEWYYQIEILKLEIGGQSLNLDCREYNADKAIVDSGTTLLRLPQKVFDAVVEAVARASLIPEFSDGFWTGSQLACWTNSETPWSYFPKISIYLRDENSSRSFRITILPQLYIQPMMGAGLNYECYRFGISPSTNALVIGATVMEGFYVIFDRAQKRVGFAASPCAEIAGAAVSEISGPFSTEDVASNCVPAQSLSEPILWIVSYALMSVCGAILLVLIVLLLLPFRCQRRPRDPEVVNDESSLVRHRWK
Protocol: In Vitro Enzymatic BACE2 FRET (Fluorescence Resonance Energy Transfer) Assay
Enzyme Assay Data in the Table 3
The assay buffer used in this screen is 0.05 M acetate, pH 4.2, 10% DMSO final, 100 uM genapol (which is a nonionic detergent, below its Critical Micelle Concentration). The Beta Secretase2 enzyme (human Bace2 protein with C-terminal V5 and 6-His tag; 0.2 nM) is pre-incubated for one hour with inhibitors, typically in about 1 uL of DMSO according to a serial dilution, are added thereto. This assay is effectively started by the addition of FRET substrate (50 nM) and the combination is incubated for one hour. Final assay concentration of about 0.64 nM. The FRET assay is terminated with by addition of Tris buffer, which raises the pH to neutrality, and the fluorescence is determined. The FRET substrate is a peptide with commercially available fluorophore and quencher, on opposite sides of the BACE cleavage site. Proteolytic cleavage of the FRET substrate releases quenching of fluorescence (excitation 488 nm and […]).

Cathepsin D (Cat D) = biological target: T2, Cathepsin D (Cat D) (Homo sapiens, UniProt P07339); assay: In vitro enzymatic Cathepsin D (Cat D) FRET assay; type: biochemical; conditions: average IC50; first procedure; read-out: CatD IC50
T2 construct: made in house; host or cells: CHO cells
T2 sequence (P07339 65-412, species assumed): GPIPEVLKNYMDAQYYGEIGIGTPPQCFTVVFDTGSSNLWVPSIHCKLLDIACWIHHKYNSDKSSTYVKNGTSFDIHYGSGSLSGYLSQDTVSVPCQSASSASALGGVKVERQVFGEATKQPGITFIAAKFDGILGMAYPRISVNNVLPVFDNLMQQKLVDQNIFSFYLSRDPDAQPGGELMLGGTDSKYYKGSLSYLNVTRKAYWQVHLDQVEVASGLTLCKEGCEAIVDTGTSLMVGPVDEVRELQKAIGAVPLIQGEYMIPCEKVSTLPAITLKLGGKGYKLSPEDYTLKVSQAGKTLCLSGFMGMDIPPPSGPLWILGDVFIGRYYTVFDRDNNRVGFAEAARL
Method in brief: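 Recombinant human Cat D expressed in CHO cells, 9 nM, pre-incubated 1 h with inhibitor in 0.05 M citrate pH 3.5, 10% DMSO, 5 mM CHAPS. Reaction started with 20 nM FRET peptide substrate, run 1 h, stopped with Tris to neutral pH; fluorescence read at ex 500/em 580 nm.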

BACE1, sequence (P56817 46-501, species assumed): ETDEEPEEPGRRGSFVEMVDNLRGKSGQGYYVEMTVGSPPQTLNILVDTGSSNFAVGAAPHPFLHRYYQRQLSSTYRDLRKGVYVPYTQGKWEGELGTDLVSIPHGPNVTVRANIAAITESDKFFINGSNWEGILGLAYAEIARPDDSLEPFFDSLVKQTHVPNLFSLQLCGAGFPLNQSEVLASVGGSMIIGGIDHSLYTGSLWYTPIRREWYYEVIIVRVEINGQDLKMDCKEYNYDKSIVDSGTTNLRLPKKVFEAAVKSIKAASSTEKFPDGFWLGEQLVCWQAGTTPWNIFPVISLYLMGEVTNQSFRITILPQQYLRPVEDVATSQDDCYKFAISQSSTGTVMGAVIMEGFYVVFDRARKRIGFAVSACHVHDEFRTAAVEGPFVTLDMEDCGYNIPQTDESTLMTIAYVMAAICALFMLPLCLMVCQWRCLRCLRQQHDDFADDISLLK

SMILES | pIC50 (BACE1) | pIC50 [1] | pIC50 (human Bace2 protein) | pIC50 (Cathepsin D (Cat D))
C#CC(C)(C)Oc1cnc(C(=O)Nc2ccc(F)c([C@@]3(C)N=C(N)[C@@]4(CF)CC[C@@H]3S4(=O)=O)c2)cn1 [Example 44, N-(3-((1S,2R,5R)-4-amino-5-(fluoromethyl)-2-methyl-8,8-dioxido-8-thia-3-azabicyclo[3.2.1]oct-3-en-2-yl)-4-fluorophenyl)-5-((1,1-dimethyl-2-propyn-1-yl)oxy)-2-pyrazinecarboxamide] | 7.47 | 6.82 | 6.55 | < 3.40
Cc1nc(OCC(F)(F)F)cnc1C(=O)Nc1ccc(F)c([C@@]2(C)N=C(N)[C@@]3(CF)CC[C@@H]2S3(=O)=O)c1 [Example 57, N-(3-((1S,2R,5R)-4-amino-5-(fluoromethyl)-2-methyl-8,8-dioxido-8-thia-3-azabicyclo[3.2.1]oct-3-en-2-yl)-4-fluorophenyl)-3-methyl-5-(2,2,2-trifluoroethoxy)-2-pyrazinecarboxamide] | 8.52 | 7.32 | 7.12 | < 3.40
C[C@]1(c2cc(Nc3nccc4nc(C(F)(F)F)cnc34)ccc2F)N=C(N)[C@@]2(CF)CC[C@@H]1S2(=O)=O [Example 55, N-(3-((1S,2R,5R)-4-amino-5-(fluoromethyl)-2-methyl-8,8-dioxido-8-thia-3-azabicyclo[3.2.1]oct-3-en-2-yl)-4-fluorophenyl)-2-(trifluoromethyl)pyrido[3,4-b]pyrazin-5-amine] | 7.74 | 6.45 | 7.62 | < 3.88
CC#CCOc1cnc2c(Nc3ccc(F)c([C@@]4(C)N=C(N)[C@@]5(C)CC[C@@H]4S5(=O)=O)c3)nccc2n1 [Example 62, N-(3-((1S,2R,5R)-4-amino-2,5-dimethyl-8,8-dioxido-8-thia-3-azabicyclo[3.2.1]oct-3-en-2-yl)-4-fluorophenyl)-2-(2-butyn-1-yloxy)pyrido[3,4-b]pyrazin-5-amine] | 9.00 | 9.00 | 8.15 | 3.91

More lines, now with the values ahead:

pIC50 (BACE1) | pIC50 [1] | pIC50 (human Bace2 protein) | pIC50 (Cathepsin D (Cat D)) | SMILES
7.89 | 7.96 | 7.62 | 2.84 | C[C@]12CC[C@H]([C@@](C)(c3cc(Nc4nccc5cc(C#N)cnc45)ccc3F)N=C1N)S2(=O)=O [Example 85, 8-((3-((1R,2R,5S)-4-amino-2,5-dimethyl-8,8-dioxido-8-thia-3-azabicyclo[3.2.1]oct-3-en-2-yl)-4-fluorophenyl)amino)-1,7-naphthyridine-3-carbonitrile]
9.00 | 9.30 | 7.09 | 2.96 | CC#CCOc1cnc(C(=O)Nc2ccc(F)c([C@@]3(C)N=C(N)[C@]4(C)CC[C@H]3S4(=O)=O)c2)cn1 [Example 83, N-(3-((1R,2R,5S)-4-amino-2,5-dimethyl-8,8-dioxido-8-thia-3-azabicyclo[3.2.1]oct-3-en-2-yl)-4-fluorophenyl)-5-(2-butyn-1-yloxy)-2-pyrazinecarboxamide]
8.52 | 10.00 | 8.10 | < 3.40 | CC#C[C@H](C)Oc1cnc(C(=O)Nc2ccc(F)c([C@@]3(C)N=C(N)[C@@]4(C)CC[C@@H]3S4(=O)=O)c2)cn1 [Example 71, N-(3-((1S,2R,5R)-4-amino-2,5-dimethyl-8,8-dioxido-8-thia-3-azabicyclo[3.2.1]oct-3-en-2-yl)-4-fluorophenyl)-5-(((1S)-1-methyl-2-butyn-1-yl)oxy)-2-pyrazinecarboxamide]
7.77 | 7.21 | 8.70 | < 3.40 | Cc1cc(Cl)cnc1C(=O)Nc1ccc(F)c([C@@]2(CF)N=C(N)[C@@]3(C)CC[C@@H]2S3(=O)=O)c1 (single isomer, unassigned) [Example 118]
8.70 | 8.52 | 8.70 | < 3.93 | C[C@]1(c2cc(Nc3nccc4cc(C#N)cnc34)ccc2F)N=C(N)[C@@]2(C)CC[C@@H]1S2(=O)=O [Example 84, 8-((3-((1S,2R,5R)-4-amino-2,5-dimethyl-8,8-dioxido-8-thia-3-azabicyclo[3.2.1]oct-3-en-2-yl)-4-fluorophenyl)amino)-1,7-naphthyridine-3-carbonitrile]
